Measurements published in US8481028B2, “Compositions for preparing a coffee beverage comprising hydrolysed chlorogenic acid” (Nestec S.A., priority 2008, dated 2013).

What was measured:
[1] = tested on: spray-dried preparation of Lactobacillus johnsonii (CNCM I-1225); assay: Treatment of NESCAFE PROTECT with spray-dried preparation of L. johnsonii, HPLC
Experimental: (§1) To this solution, 10 mg of a spray-dried preparation of Lactobacillus johnsonii (CNCM I-1225) (3.3 E9 cfu/g) were added. The mixture was then incubated at 37° C. and samples were withdrawn at different reaction times. After centrifugation (3000 g, 5 min) and filtration (0.45 μm pore size syringe filters, Millipore SLHA 025 BS) the samples were analysed by HPLC.
(§2) Coffee samples were diluted to 1% w/w and analyzed by RP-HPLC on a CC 250/4 Nucleosil 100-5-C18 column (Macherey-Nagel). The eluent system was Millipore water, 0.1% TFA and CH3CN at a flow rate of 1 mL/min. The method allowed the simultaneous determination of caffeoyl quinic acids (CQA), feruloyl quinic acids (FQA), di-caffeoyl quinic acids (diCQA), feruloyl quinic acid-lactones, caffeic acid (CA) and ferulic acid (FA) (absorbance at 325 nm) using external standard calibration curves. Results were expressed relative to the reference at time 0 (t0) or to the reference at the same time without bacteria.

[2] = tested on: Lactobacillus johnsonii (CNCM I-1225); assay: Treatment of coffee extracts with bacteria cells (L. johnsonii), HPLC
Experimental: as §2
(§3) Tested strains were harvested (centrifugation at 5000 g for 10 min) after having well reached stationary phase, corresponding to 16 hours of incubation in culture medium at 37° C. in anaerobic atmosphere without agitation. For a first activation of the strains, frozen stock cultures were inoculated in fresh media and grown overnight. This pre-culture was used to inoculate the culture.
(§4) After culture of bacteria and centrifugation, the pellets were resuspended in phosphate buffer (pH 7.0) at a concentration of 0.61 g/ml. To 200 μl of this cells preparation, 800 μl of a coffee solution (3%) was added and the mixture was incubated at 37° C. for 4 h, 16 h and 24 h.

[3] = tested on: Bifidobacterium lactis BB12 (CNCM I-3446); assay: Treatment of coffee extracts with bacteria cells (B. lactis), HPLC
Experimental: as §2, §3, §4

[4] = tested on: spray-dried preparation of Lactobacillus johnsonii (CNCM I-1225); assay: Treatment of green coffee extract with spray-dried preparation of L. johnsonii, HPLC
Experimental: as §1, with “30 mg of a dried green coffee extract was dissolved in 1 ml phosphate buffer (50 mM, pH 7.0) or in 1 ml water. To” for “To”, “johnsonii” for “johnsonii (CNCM I-1225)”, “cfu/g) was” for “cfu/g) were”
as §2

[5] = tested on: Lactobacillus johnsonii (CNCM I-1225) extract (lysed cells); assay: Treatment of NESCAFE PROTECT with L. johnsonii extract (lysed cells), HPLC; type: biochemical
Experimental: Cells of L. johnsonii (CNCM I-1225) were grown (7.0 E08 cfu/ml) and centrifuged (5000 g, 10 min), the pellets were resuspended in phosphate buffer (50 mM, pH 7.0) at a concentration of 0.61 g/ml. The cells were then lysed using the glass-beads method. 600 μl of cells preparation were put in screw-cap tubes and 600 μl of glass-beads were added at 0° C. The tubes were then put into a Mini-Beadbeater for 1 min of intense shaking, cooled in ice, and put another 1 min in the Mini-Beadbeater. […] Samples were withdrawn at different reaction times, centrifuged (3000 g, 5 min), filtered through 0.45 μm pore size syringe filters (Millipore SLHA 025 BS) and analysed by HPLC.
as §2

Chlorogenate esterase = assay: Incubation of coffee extracts with chlorogenate esterase, HPLC; type: biochemical, Aspergillus japonicus
Experimental: as §2
Chlorogenate esterase (24 U/g), derived from Aspergillus japonicus (Kikkoman, Japan). Tannase from Aspergillus oryzae (Kikkoman, Japan) Preparation of Bacteria Cells
A solution of chlorogenate esterase (25 mg) in 200 μl phosphate buffer (pH 7.0) was added to 800 μl of a coffee solution (3%). The mixture was then incubated at 37° C. for 4 h, 16 h and 24 h. After reaction time, the enzymatic activity was stopped by heat treatment (3 min, 90° C.) and the mixture was filtered before analysis.

[6] = tested on: Lactobacillus johnsonii (CNCM I-1225) fresh cells; assay: Treatment of NESCAFE PROTECT with L. johnsonii fresh cells, HPLC of chlorogenic and phenolic acids
Experimental: Cells of L. johnsonii (CNCM I-1225) were grown (7.0 E08 cfu/ml) and centrifuged (5000 g, 10 min), the pellets were resuspended in phosphate buffer (50 mM, pH 7.0) at a concentration of 0.61 g/ml. […] Samples were withdrawn at different reaction times, centrifuged (3000 g, 5 min) and filtered through 0.45 μm pore size syringe filters (Millipore SLHA 025 BS) and analysed by HPLC.
A reaction control was run in parallel under the same reaction conditions but without bacteria.
as §2

[7] = tested on: concentrated preparation of Lactobacillus johnsonii (CNCM I-1225); assay: Treatment of NESCAFE with concentrated preparation of L. johnsonii, HPLC
Experimental: 400 mg of NESCAFE SPECIAL FILTRE® (a dried extract of roasted coffee beans) were dissolved in 1 ml of boiling water and the solution was cooled to 37° C. at room temperature. To 250 μl of this coffee solution, different amounts of concentrated preparation of Lactobacillus johnsonii (50 μl, 100 μl, 350 μl, 750 μl) were added and the volume was adjusted to 1 ml with water. The mixtures were than incubated at 37° C. for 2 h and 4 h. After centrifugation (3000 g, 5 min) and filtration the samples were analysed by HPLC.
as §2

[8] = NESCAFE PROTECT + Lactobacillus johnsonii, 4 h
[9] = NESCAFE PROTECT + Lactobacillus johnsonii, 16 h
[10] = NESCAFE PROTECT + Lactobacillus johnsonii, 24 h
[11] = green coffee extract + Lactobacillus johnsonii, 4 h
[12] = green coffee extract + Lactobacillus johnsonii, 16 h
[13] = green coffee extract + Lactobacillus johnsonii, 24 h
[14] = NESCAFE PROTECT + Bifidobacterium lactis, 4 h
[15] = NESCAFE PROTECT + Bifidobacterium lactis, 16 h
[16] = NESCAFE PROTECT + Bifidobacterium lactis, 24 h
[17] = green coffee extract + Bifidobacterium lactis, 4 h
[18] = green coffee extract + Bifidobacterium lactis, 16 h
[19] = green coffee extract + Bifidobacterium lactis, 24 h
[20] = NESCAFE PROTECT + Chlorogenate esterase, 4 h
[21] = NESCAFE PROTECT + Chlorogenate esterase, 16 h
[22] = NESCAFE PROTECT + Chlorogenate esterase, 24 h
[23] = green coffee extract + Chlorogenate esterase, 4 h
[24] = green coffee extract + Chlorogenate esterase, 16 h
[25] = green coffee extract + Chlorogenate esterase, 24 h

## feruloyl quinic acids [FQA]
[1]; 2 h
  % relative to untreated control at t = 0: 82%
[1]; 6 h
  % relative to untreated control at t = 0: 60%
[1]; 24 h
  % relative to untreated control at t = 0: 34%
[2]; [8]
  % relative to untreated control at t = 0: 42%
[2]; [9]
  % relative to untreated control at t = 0: 21%
[2]; [10]
  % relative to untreated control at t = 0: 20%
[2]; [11]
  % relative to untreated control at t = 0: 49%
[2]; [12]
  % relative to untreated control at t = 0: 15%
[2]; [13]
  % relative to untreated control at t = 0: 15%
[3]; [14]
  % relative to untreated control at t = 0: 54%
[3]; [15]
  % relative to untreated control at t = 0: 23%
[3]; [16]
  % relative to untreated control at t = 0: 20%
[3]; [17]
  % relative to untreated control at t = 0: 33%
[3]; [18]
  % relative to untreated control at t = 0: 12%
[3]; [19]
  % relative to untreated control at t = 0: 6%
[4]; 4 h
  % relative to untreated control at t = 0: 79%
[4]; 6 h
  % relative to untreated control at t = 0: 71%
[4]; 16 h
  % relative to untreated control at t = 0: 48%
[4]; 24 h
  % relative to untreated control at t = 0: 52%
[5]; 2 h, cell preparation 100.0 uL
  Concentration in % relative to untreated reference at t = 0: 36%
[5]; 2 h, cell preparation 350.0 uL
  Concentration in % relative to untreated reference at t = 0: 15%
[5]; 6 h, cell preparation 100.0 uL
  Concentration in % relative to untreated reference at t = 0: 18%
[5]; 6 h, cell preparation 350.0 uL
  Concentration in % relative to untreated reference at t = 0: 11%
Chlorogenate esterase; [20]
  % relative to untreated control at t = 0: 54%
Chlorogenate esterase; [21]
  % relative to untreated control at t = 0: 15%
Chlorogenate esterase; [22]
  % relative to untreated control at t = 0: 14%
Chlorogenate esterase; [23]
  % relative to untreated control at t = 0: 73%
Chlorogenate esterase; [24]
  % relative to untreated control at t = 0: 24%
Chlorogenate esterase; [25]
  % relative to untreated control at t = 0: 23%
[6]; 6 h, cell preparation 100 uL
  Concentration in % relative to untreated reference at t = 0: 42%
[6]; 6 h, cell preparation 350 uL
  Concentration in % relative to untreated reference at t = 0: 17%
[6]; 6 h, cell preparation 750 uL
  Concentration in % relative to untreated reference at t = 0: 8%
[6]; 24 h, cell preparation 100 uL
  Concentration in % relative to untreated reference at t = 0: 17%
[6]; 24 h, cell preparation 350 uL
  Concentration in % relative to untreated reference at t = 0: 4%
[6]; 24 h, cell preparation 750 uL
  Concentration in % relative to untreated reference at t = 0: 0%
[7]; cell amount 50 μL/1 mL, 2 h
  % relative to untreated control at t = 0: 90%
[7]; cell amount 50 μL/1 mL, 4 h
  % relative to untreated control at t = 0: 89%
[7]; cell amount 100 μL/1 mL, 2 h
  % relative to untreated control at t = 0: 82%
[7]; cell amount 100 μL/1 mL, 4 h
  % relative to untreated control at t = 0: 74%
[7]; cell amount 350 μL/1 mL, 2 h
  % relative to untreated control at t = 0: 61%
[7]; cell amount 350 μL/1 mL, 4 h
  % relative to untreated control at t = 0: 53%
[7]; cell amount 750 μL/1 mL, 2 h
  % relative to untreated control at t = 0: 41%
[7]; cell amount 750 μL/1 mL, 4 h
  % relative to untreated control at t = 0: 37%

## di-caffeoyl quinic acids [diCQA]
[2]; [8]
  % relative to untreated control at t = 0: 18%
[2]; [9]
  % relative to untreated control at t = 0: 2%
[2]; [10]
  % relative to untreated control at t = 0: 2%
[2]; [11]
  % relative to untreated control at t = 0: 35%
[2]; [12]
  % relative to untreated control at t = 0: 6%
[2]; [13]
  % relative to untreated control at t = 0: 3%
[3]; [14]
  % relative to untreated control at t = 0: 91%
[3]; [15]
  % relative to untreated control at t = 0: 72%
[3]; [16]
  % relative to untreated control at t = 0: 67%
[3]; [17]
  % relative to untreated control at t = 0: 85%
[3]; [18]
  % relative to untreated control at t = 0: 70%
[3]; [19]
  % relative to untreated control at t = 0: 64%
[4]; 4 h
  % relative to untreated control at t = 0: 67%
[4]; 6 h
  % relative to untreated control at t = 0: 53%
[4]; 16 h
  % relative to untreated control at t = 0: 32%
[4]; 24 h
  % relative to untreated control at t = 0: 20%
[5]; 2 h, cell preparation 100.0 uL
  Concentration in % relative to untreated reference at t = 0: 8%
[5]; 2 h, cell preparation 350.0 uL
  Concentration in % relative to untreated reference at t = 0: 1%
[5]; 6 h, cell preparation 100.0 uL
  Concentration in % relative to untreated reference at t = 0: 1%
[5]; 6 h, cell preparation 350.0 uL
  Concentration in % relative to untreated reference at t = 0: 1%
Chlorogenate esterase; [20]
  % relative to untreated control at t = 0: 0%
Chlorogenate esterase; [21]
  % relative to untreated control at t = 0: 0%
Chlorogenate esterase; [22]
  % relative to untreated control at t = 0: 1%
Chlorogenate esterase; [23]
  % relative to untreated control at t = 0: 0%
Chlorogenate esterase; [24]
  % relative to untreated control at t = 0: 0%
Chlorogenate esterase; [25]
  % relative to untreated control at t = 0: 0%
[6]; 6 h, cell preparation 100 uL
  Concentration in % relative to untreated reference at t = 0: 23%
[6]; 6 h, cell preparation 350 uL
  Concentration in % relative to untreated reference at t = 0: 0%
[6]; 6 h, cell preparation 750 uL
  Concentration in % relative to untreated reference at t = 0: 0%
[6]; 24 h, cell preparation 100 uL
  Concentration in % relative to untreated reference at t = 0: 2%
[6]; 24 h, cell preparation 350 uL
  Concentration in % relative to untreated reference at t = 0: 0%
[6]; 24 h, cell preparation 750 uL
  Concentration in % relative to untreated reference at t = 0: 0%
[7]; cell amount 50 μL/1 mL, 2 h
  % relative to untreated control at t = 0: 86%
[7]; cell amount 50 μL/1 mL, 4 h
  % relative to untreated control at t = 0: 75%
[7]; cell amount 100 μL/1 mL, 2 h
  % relative to untreated control at t = 0: 68%
[7]; cell amount 100 μL/1 mL, 4 h
  % relative to untreated control at t = 0: 56%
[7]; cell amount 350 μL/1 mL, 2 h
  % relative to untreated control at t = 0: 23%
[7]; cell amount 350 μL/1 mL, 4 h
  % relative to untreated control at t = 0: 15%
[7]; cell amount 750 μL/1 mL, 2 h
  % relative to untreated control at t = 0: 6%
[7]; cell amount 750 μL/1 mL, 4 h
  % relative to untreated control at t = 0: 6%
